From article PMC6615261, “Repurposing Azithromycin and Rifampicin Against Gram-Negative Pathogens by Combination With Peptidomimetics” (Frontiers in Cellular and Infection Microbiology, 2019)

Tests used:
[1] = tested on: P. aeruginosa clinical isolates and reference strains; assay: MIC of fixed-ratio peptidomimetic 1-antibiotic combinations in clinical isolates and reference strains; format: cell-based, Pseudomonas aeruginosa; conditions: with rifampicin or azithromycin
Text: Bacterial strains used in this study comprise MDR clinical isolates of E. coli ST131 (Cerquetti et al., [2010]) and K. pneumoniae ST258 (Jana et al., [2017]), and American type culture collection (ATCC) strains: ATCC 25922 (E. coli), ATCC 13883 (K. pneumoniae), and ATCC 27853 (P. aeruginosa). Additional clinical isolates of E. coli, K. pneumoniae, and P. aeruginosa resistant to β-lactams (including carbapenems and cephalosporins) were provided by Laurent Poirel, Université de Fribourg, Switzerland. The following growth media was routinely used for bacterial culturing: Luria-Burtani (LB), cation-adjusted Mueller-Hinton agar (MHA) and broth (MHB II). All assays were performed in cation-adjusted MHA or MHB II. Antibiotics were purchased from Sigma-Aldrich and the peptidomimetic collection (Table S1) was curated and provided by Henrik Franzyk. […]
Minimal inhibitory concentrations (MICs) of peptidomimetics, antibiotics and their combinations were determined by broth microdilution according to the Clinical Laboratory Standards Institute performance standards (Clinical and Laboratory Standards Institute, [2013]). […] Potentiation of additional antibiotics by peptidomimetics was determined by using commercial 96-well plates containing varied concentrations of standard antibiotics (COMPAN1F; Trek Diagnostic Systems Inc.). The peptidomimetics were added immediately prior to inoculation with pathogen, and then MICs were determined as above. The MICs of peptidomimetic/antibiotic combinations were determined according to the method above, and the concentration ratios were selected based upon checkerboard results with 2:1 and 1:4 ratio of peptidomimetic with rifampicin or azithromycin, respectively. Minimal bactericidal concentrations (MBCs) were determined by using growth-curve assay plates. […] Growth was recorded at 10 min intervals as optical density (OD) at 600 nm during 24 h. […]

[2] = tested on: K. pneumoniae ST258; assay: Screening of peptidomimetic-antibiotic combinations (growth / growth inhibition); format: cell-based, Klebsiella pneumoniae; design: key to Growth in combination with RIF / Growth in combination with AZM: Growth (+); growth inhibition (–)
[3] = MTS/PMS cell viability assay; format: cell-based, mouse; conditions: mouse, NIH 3T3 fibroblasts, 1 h exposure, read-out: Cytotoxicity NIH 3T3 EC50 ± SD
Procedure, shortened: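 NIH 3T3 and HepG2 cells at 80–90% confluence exposed 1 h to compound in serum-free medium, then MTS/PMS added for 1 h at 37 °C; absorbance read at 492 nm. Viability normalized to medium (0% death) and 0.2% SDS (100% death); EC50 from Hill fit constrained 0–100%, technical triplicates.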

NCCCC[C@H](NC(=O)CCN(Cc1ccccc1)C(=O)[C@H](CCCCN)NC(=O)CCN(Cc1ccccc1)C(=O)[C@H](CCCCN)NC(=O)CCN(Cc1ccccc1)C(=O)[C@H](CCCCN)NC(=O)CCN(Cc1ccccc1)C(=O)[C@H](CCCCN)NC(=O)CCN(Cc1ccccc1)C(=O)[C@H](CCCCN)NC(=O)CCN(Cc1ccccc1)C(=O)[C@H](CCCCN)NC(=O)CCN(Cc1ccccc1)C(=O)[C@@H](N)CCCCN)C(=O)N(CCC(N)=O)Cc1ccccc1 [Peptidomimetic 1, H-(Lys-βNPhe)8-NH2]
Peptidomimetic concentration typically required, P. aeruginosa isolates [1]: 1 to 8 µM
Screening result with rifampicin ([2]; 0.5 μM peptidomimetic + 0.5 μg/mL rifampicin): inhibit growth
Screening result with azithromycin ([2]; 0.5 μM peptidomimetic + 1 μg/mL azithromycin): prevented growth
Growth in combination with AZM ([2]; peptidomimetic 0.5 μM + azithromycin 1 μg/mL): –
Growth in combination with RIF ([2]; peptidomimetic 0.5 μM + rifampicin 0.5 μg/mL): –
EC50 at 1 h [3]: 211 ± 26.8 µM
